PubChem BioAssay AID1963450 (Molecular Pharmacology Branch, DTP, NCI, 2024)
Where “and” joins values, the source holds several entries; their conditions need not be identical. Equal entries are not always repeated. Values belong to the compound of their own block, whether it stands above or below them.

Tested on: 556581-035-R-J1-PDC complex spheroid growth
Assay: Anticancer human tumor 556581-035-R-J1-PDC patient-derived ovarian carcinoma cell line growth inhibition [Asc]
Details: for viability, T/C: stronger effect = lower value
Outline: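 Tumor cells were grown as multicellular spheroids with stromal HUVEC and mesenchymal stem cells and treated singly or in combination. Concentrations fell in half-log steps from the clinical Cmax, or from 10 microM where none was known.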

[1] = curve of first compound, second compound 0.03 µM
[2] = curve of first compound, second compound 0.0949 µM
[3] = curve of first compound, second compound 0.3 µM
[4] = curve of first compound, second compound 0.949 µM
[5] = curve of first compound, second compound 3 µM
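Note: spheroids exposed to agents for 7 days before viability read.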

IC50 [1]: 2240 nM | IC50 [2]: 1530 nM | IC50 [3]: > 3000 nM | IC50 [4]: 2430 nM | IC50 [5]: 847 nM
SMILES: Cc1nc(N2CCC3(CC2)COC(C)C3N)c(CO)nc1Sc1ccnc(N)c1Cl (configuration not stated) + CCN1C(C(=O)NC23CCC(C(=O)O)(CC2)CC3)C(c2cccc(Cl)c2F)C2(C(=O)Nc3cc(Cl)ccc32)C12CCCCC2
viability, T/C (second compound 0.03 µM, first compound 0.00949 µM): 84.7% | viability, T/C (second compound 0.03 µM, first compound 0.03 µM): 82.1% | viability, T/C (second compound 0.03 µM, first compound 0.0949 µM): 74% | viability, T/C (second compound 0.03 µM, first compound 0.3 µM): 62.4% | viability, T/C (second compound 0.03 µM, first compound 0.949 µM): 64.3% | viability, T/C (second compound 0.03 µM, first compound 3 µM): 45.1% | viability, T/C (second compound 0.0949 µM, first compound 0.00949 µM): 88.9% | viability, T/C (second compound 0.0949 µM, first compound 0.03 µM): 91.2% | viability, T/C (second compound 0.0949 µM, first compound 0.0949 µM): 88.1% | viability, T/C (second compound 0.0949 µM, first compound 0.3 µM): 66.5% | viability, T/C (second compound 0.0949 µM, first compound 0.949 µM): 60.6% | viability, T/C (second compound 0.0949 µM, first compound 3 µM): 39.4% | viability, T/C (second compound 0.3 µM, first compound 0.00949 µM): 85.7% | viability, T/C (second compound 0.3 µM, first compound 0.03 µM): 95.7% | viability, T/C (second compound 0.3 µM, first compound 0.0949 µM): 72.8% | viability, T/C (second compound 0.3 µM, first compound 0.3 µM): 73.7% | viability, T/C (second compound 0.3 µM, first compound 0.949 µM): 49.5% | viability, T/C (second compound 0.3 µM, first compound 3 µM): 58.9% | viability, T/C (second compound 0.949 µM, first compound 0.00949 µM): 93.4% | viability, T/C (second compound 0.949 µM, first compound 0.03 µM): 82.3% | viability, T/C (second compound 0.949 µM, first compound 0.0949 µM): 80.9% | viability, T/C (second compound 0.949 µM, first compound 0.3 µM): 68.4% | viability, T/C (second compound 0.949 µM, first compound 0.949 µM): 54.7% | viability, T/C (second compound 0.949 µM, first compound 3 µM): 49.4% | viability, T/C (second compound 3 µM, first compound 0.00949 µM): 88.4% | viability, T/C (second compound 3 µM, first compound 0.03 µM): 78.7% | viability, T/C (second compound 3 µM, first compound 0.0949 µM): 79.7% | viability, T/C (second compound 3 µM, first compound 0.3 µM): 60.8% | viability, T/C (second compound 3 µM, first compound 0.949 µM): 45.7% | viability, T/C (second compound 3 µM, first compound 3 µM): 50.6%

IC50 (curve of compound): 53.7 nM and 38.1 nM and 25.9 nM
SMILES: COc1c(OCCCN2CCOCC2)ccc2c3n(c(=NC(=O)c4cnc(N)nc4)nc12)CCN3
viability, T/C (compound 0.00316 µM): 78.2% and 82.3% and 79.7% | viability, T/C (compound 0.01 µM): 72.5% and 69% and 57% | viability, T/C (compound 0.0316 µM): 46.2% and 48.9% and 45.8% | viability, T/C (compound 0.1 µM): 48.2% and 42% and 41% | viability, T/C (compound 0.316 µM): 31.7% and 22.4% and 24.1% | viability, T/C (compound 1 µM): 11.9% and 14.8% and 17.5%

IC50 [1]: > 1000 nM | IC50 [2]: > 1000 nM | IC50 [3]: > 1000 nM | IC50 [4]: > 1000 nM | IC50 [5]: > 1000 nM
SMILES: CCN1CCN(Cc2ccc(Nc3ncc(F)c(-c4cc(F)c5nc(C)n(C(C)C)c5c4)n3)nc2)CC1 + CCN1C(C(=O)NC23CCC(C(=O)O)(CC2)CC3)C(c2cccc(Cl)c2F)C2(C(=O)Nc3cc(Cl)ccc32)C12CCCCC2
viability, T/C (second compound 0.03 µM, first compound 0.00316 µM): 91.6% | viability, T/C (second compound 0.03 µM, first compound 0.01 µM): 84.4% | viability, T/C (second compound 0.03 µM, first compound 0.0316 µM): 94% | viability, T/C (second compound 0.03 µM, first compound 0.1 µM): 81.8% | viability, T/C (second compound 0.03 µM, first compound 0.316 µM): 102% | viability, T/C (second compound 0.03 µM, first compound 1 µM): 88% | viability, T/C (second compound 0.0949 µM, first compound 0.00316 µM): 107% | viability, T/C (second compound 0.0949 µM, first compound 0.01 µM): 98% | viability, T/C (second compound 0.0949 µM, first compound 0.0316 µM): 95.2% | viability, T/C (second compound 0.0949 µM, first compound 0.1 µM): 106% | viability, T/C (second compound 0.0949 µM, first compound 0.316 µM): 98.2% | viability, T/C (second compound 0.0949 µM, first compound 1 µM): 87.2% | viability, T/C (second compound 0.3 µM, first compound 0.00316 µM): 102% | viability, T/C (second compound 0.3 µM, first compound 0.01 µM): 82.5% | viability, T/C (second compound 0.3 µM, first compound 0.0316 µM): 96.8% | viability, T/C (second compound 0.3 µM, first compound 0.1 µM): 99.7% | viability, T/C (second compound 0.3 µM, first compound 0.316 µM): 92.3% | viability, T/C (second compound 0.3 µM, first compound 1 µM): 88.4% | viability, T/C (second compound 0.949 µM, first compound 0.00316 µM): 84.9% | viability, T/C (second compound 0.949 µM, first compound 0.01 µM): 88.5% | viability, T/C (second compound 0.949 µM, first compound 0.0316 µM): 92.9% | viability, T/C (second compound 0.949 µM, first compound 0.1 µM): 92.9% | viability, T/C (second compound 0.949 µM, first compound 0.316 µM): 81.1% | viability, T/C (second compound 0.949 µM, first compound 1 µM): 91.6% | viability, T/C (second compound 3 µM, first compound 0.00316 µM): 81.7% | viability, T/C (second compound 3 µM, first compound 0.01 µM): 83.3% | viability, T/C (second compound 3 µM, first compound 0.0316 µM): 82.6% | viability, T/C (second compound 3 µM, first compound 0.1 µM): 83.5% | viability, T/C (second compound 3 µM, first compound 0.316 µM): 87.2% | viability, T/C (second compound 3 µM, first compound 1 µM): 86.2%
